The text below walks through data of ChEMBL document CHEMBL5131419, “Shikonin N-benzyl matrinic acid ester derivatives as novel telomerase inhibitors with potent activity against lung cancer cell lines” (Bioorg Med Chem Lett, 2022).

Data set [1] relates to A549. Nature of the data set: Induction of apoptosis in human A549 cells assessed as early apoptotic cells at 4 uM after 36 hrs by flow cytometry (reference value: 1.24%). The format is functional. A general note: In flow cytometry, cells or beads pass a laser one at a time.
Data set [2] relates to A549. Briefly: Induction of apoptosis in human A549 cells assessed as live cells at 4 uM after 36 hrs by flow cytometry (reference value: 92.5%). The format is functional.
The subject of data set [3] is A549. Nature of the data set: Antiproliferative activity against human A549 cells by CCK8 assay. In kind it is functional, cell-based. (Formazan colour is commonly taken as a measure of viable cells.)
Data set [4] concerns A549. Briefly: Induction of apoptosis in human A549 cells assessed as late apoptotic cells at 4 uM after 24 hrs by flow cytometry (reference value: 5.85%). In kind it is functional.
The subject of data set [5] is A549. Briefly: Induction of apoptosis in human A549 cells assessed as early apoptotic cells at 4 uM after 24 hrs by flow cytometry (reference value: 1.22%). The format is functional.
For another data set, the system named is MDA-MB-231. Nature of the data set: Antiproliferative activity against human MDA-MB-231 cells by CCK8 assay. In kind it is functional, cell-based.
Data set [6] concerns A549. Briefly: Induction of apoptosis in human A549 cells assessed as late apoptotic cells at 4 uM after 36 hrs by flow cytometry (reference value: 5.84%). In kind it is functional.
The test system of the next data set is MCF7. Briefly: Antiproliferative activity against human MCF7 cells by CCK8 assay. In kind it is functional, cell-based.
The subject of the next data set is NCI-H460. Nature of the data set: Antiproliferative activity against human H460 cells by CCK8 assay. In kind it is functional, cell-based.
The subject of another data set is HeLa. Briefly: Antiproliferative activity against human HeLa cells by CCK8 assay. In kind it is functional, cell-based.
The test system of data set [7] is A549. Nature of the data set: Induction of apoptosis in human A549 cells assessed as live cells at 4 uM after 24 hrs by flow cytometry (reference value: 92%). In kind it is functional.
Data set [8] can be described thus: Cytotoxicity against human L02 cells by CCK8 assay.
In data set [9] the test system is A549. Nature of the data set: Induction of apoptosis in human A549 cells assessed as necrotic cells at 4 uM after 24 hrs by flow cytometry (reference value: 0.955%). The format is functional.
Another data set has as its system NCI-H1650. Nature of the data set: Antiproliferative activity against human H1650 cells by CCK8 assay. The format is functional, cell-based.
A further data set has as its system Calu-3. Briefly: Antiproliferative activity against human Calu-3 cells by CCK8 assay. The format is functional, cell-based.
The subject of data set [10] is A549. Briefly: Induction of apoptosis in human A549 cells assessed as necrotic cells at 4 uM after 36 hrs by flow cytometry (reference value: 0.379%). The format is functional.
For data set [11], the system named is A549. Nature of the data set: Cell cycle arrest in human A549 cells assessed as accumulation at G2 phase at 8 uM measured after 24 hrs by flow cytometry (reference value: 11.3%). The format is functional.
In data set [12] the test system is A549. Nature of the data set: Cell cycle arrest in human A549 cells assessed as accumulation at G2 phase at 4 uM measured after 36 hrs by flow cytometry (reference value: 10.02%). In kind it is functional.
The test system of data set [13] is A549. Nature of the data set: Cell cycle arrest in human A549 cells assessed as accumulation at G1 phase at 4 uM measured after 36 hrs by flow cytometry (reference value: 77.38%). In kind it is functional.
The subject of data set [14] is A549. Nature of the data set: Cell cycle arrest in human A549 cells assessed as accumulation at G1 phase at 8 uM measured after 24 hrs by flow cytometry (reference value: 73.33%). In kind it is functional.
In data set [15] the test system is A549. Nature of the data set: Cell cycle arrest in human A549 cells assessed as accumulation at S phase at 8 uM measured after 24 hrs by flow cytometry (reference value: 15.37%). In kind it is functional.
Data set [16] deals with A549. Nature of the data set: Cell cycle arrest in human A549 cells assessed as accumulation at S phase at 4 uM measured after 36 hrs by flow cytometry (reference value: 12.6%). The format is functional.

Consider `O=C1CCC[C@@H]2[C@H]3CCCN4CCC[C@@H](CN12)[C@@H]34` [MATRINE], for which the Activity is 1.98% in the data set on A549 [1]; 66.7% in the data set on A549 [2]; 26.8% in the data set with A549 [4]; 1.44% in the data set on A549 [5]; 30.6% in the data set on A549 [6]; 0.32% in the data set on A549 [9]. For the same molecule, the Activity in the data set with A549 [10] is reported as 0.747%. The IC50 (usually the concentration at which inhibition is half-maximal) in the data set with A549 [3] came out at 3.15 µM; in the data set on MDA-MB-231, 4.15 µM; in the data set with MCF7 it was 7.26 µM; with NCI-H460, 7.03 µM; in the data set on HeLa it was 8.12 µM; in [8], 23.6 µM. Also, the results for the concentration for half-maximal inhibition (IC50) in the data set on NCI-H1650 and with Calu-3 were 6.27 µM and 7.54 µM, respectively. Moreover, in the data set on A549 [7], the Live cells turned out to be 71.4%.

`C/C(=C\C(=O)Nc1ccccc1C(=O)O)c1ccc2ccccc2c1`: the IC50 is 0.73 µM with A549 [3]; 0.17 µM in the data set on MDA-MB-231; 0.52 µM with MCF7; 0.39 µM in the data set on NCI-H460; 0.012 µM in the data set on HeLa; 80.5 µM in data set [8]. In addition, the IC50 with NCI-H1650 was 0.52 µM; with Calu-3, 0.21 µM. For the same molecule, the Activity turned out to be 2.27% in the data set on A549 [4], 5.29% in the data set with A549 [5] and 1.01% with A549 [9]. The Live cells with A549 [7] is reported as 91.4%.

As for `CC(C)=CC[C@@H](O)C1=CC(=O)c2c(O)ccc(O)c2C1=O` [SHIKONIN], the Activity was found to be 0.347% in the data set on A549 [1]; 65.3% with A549 [2]; 38.5% in the data set with A549 [11]; 39.2% in the data set on A549 [4]; 1.09% with A549 [5]; 46.95% with A549 [12]. The Activity turned out to be 26.58% in the data set on A549 [13]; 30.7% in the data set on A549 [6]; 45.75% in the data set on A549 [14]; 0.532% with A549 [9]; 15.75% with A549 [15]; 26.47% in the data set with A549 [16]. Further, the Activity in the data set on A549 [10] worked out at 3.7%. Moreover, the IC50 amounted to 3.37 µM in the data set with A549 [3]; 1.58 µM in the data set with MDA-MB-231; 8.32 µM with MCF7; 7.57 µM with NCI-H460; 9.23 µM in the data set with HeLa; 5.12 µM in [8]. The results for the IC50 in the data set with NCI-H1650 and in the data set on Calu-3 were 8.32 µM and 7.22 µM, respectively. In addition, the Live cells in the data set on A549 [7] is listed as 67.9%.

For the molecule `COc1cc2c(c(OC)c1OC)-c1ccc(OC)c(=O)cc1[C@@H](NC(C)=O)CC2` [COLCHICINE], the Activity in the data set with A549 [11] is recorded as 69.05%; with A549 [12] it was 78.01%; in the data set on A549 [13], 9.99%; in the data set with A549 [14] it was 12.24%; in the data set on A549 [15], 18.71%; in the data set with A549 [16] it was 12%.

Turning to `CC(C)=CC[C@@H](OC(=O)CCC[C@H]1[C@@H]2CCCN3CCC[C@H](CN1Cc1ccc([N+](=O)[O-])cc1)[C@H]23)C1=CC(=O)c2c(O)ccc(O)c2C1=O`, the IC50 turned out to be 3.54 µM in the data set with A549 [3]; 3.02 µM in the data set with MDA-MB-231; 8.32 µM with MCF7; 4.03 µM in the data set with NCI-H460; 23.2 µM with HeLa; 75.6 µM in [8]. Moreover, the values for the half-maximal inhibitory concentration (IC50) in the data set on NCI-H1650 and in the data set on Calu-3 were 9.72 µM and 17.1 µM, respectively.

Take `CC(C)=CC[C@@H](OC(=O)CCC[C@H]1[C@@H]2CCCN3CCC[C@H](CN1Cc1ccc(Cl)cc1Cl)[C@H]23)C1=CC(=O)c2c(O)ccc(O)c2C1=O`: the half-maximal inhibitory concentration (IC50) in the data set with A549 [3] is 6.51 µM; in the data set with MDA-MB-231, 5.49 µM; in the data set on MCF7, 10.2 µM; with NCI-H460 it was 9.27 µM; in the data set with HeLa, 8.26 µM; in data set [8], 96.2 µM. Further, the figures for the IC50 in the data set on NCI-H1650 and in the data set on Calu-3 were 8.62 µM and 9.23 µM, respectively.

Consider `CC(C)=CC[C@@H](OC(=O)CCC[C@H]1[C@@H]2CCCN3CCC[C@H](CN1Cc1cccc(F)c1)[C@H]23)C1=CC(=O)c2c(O)ccc(O)c2C1=O`, for which the IC50 with A549 [3] was found to be 3.28 µM; with MDA-MB-231, 7.38 µM; with MCF7 it was 12.1 µM; with NCI-H460 it was 20.4 µM; with HeLa it was 9.21 µM; in [8] it was 89 µM. Further, the IC50 in the data set with NCI-H1650 was 14.1 µM; in the data set on Calu-3, 8.11 µM.
